According to US20210355115A1, “ISOXAZOLE CARBOXAMIDE COMPOUNDS AND USES THEREOF” (Novartis AG, priority 2018, published 2021):

Columns and labels:
Atoh1 = Atoh1 induction assay in mouse cerebellar neural precursor cells (Atoh1-GFP reporter assay); assay type: cell-based; conditions: maximum fold difference over DMSO control (=1), cerebellar NPCs from Atoh1-GFP mice, 10 doses 50 μM to 200 nM, 72 hours treatment, read-out: Fold Difference (ratio of Atoh1-GFP average intensity_FC to DMSO_Max)
Procedure: Atoh1 induction assay was conducted with in vitro cultured cerebellar neural precursor cells isolated from neonatal transgenic Atoh1-GFP mice. Atoh1 expression is mainly regulated by the enhancer, and the nuclear GFP was driven by the cloned enhancer sequence at 3′ of Atoh1 which had high conservation among mammalians So Atoh1 induction could be reflected by GFP activation in cerebellar neural precursor cells (Helms et al., Development 2000; 127: 1185-1196; Lumpkin et al., Gene Expression Patterns 2003; 3: 389-395). Postnatal 3 days pups were dissected for cerebellum tissue isolation. The cerebellum tissue was cut into small pieces, and dissociated with 0.05% Trypsin for about 10 minutes at 37° C., and then filtered with a 70 uM cell strainer. The cells were cultured as neuropsheres for the first 2 days in ultra-low attachment dish/well-plate with DMEM/F12+1% N2 &2% B27 with 1% P/S, 20 ng/ml rhFGF2 and 20 ng/ml rhEGF (R&D Systems). Then the spheres were plated to the matrigel (1:30 diluted in DMEM/F12)-coated tissue culture dish for monolayer culture. After 4.5-5.5 days culture in vitro (DIV), cells were dissociated with 0.05% trypsin into single cells, and frozen after cell number calculation.
The cerebellar neural precursor cells (NPCs) were re-thawed from stock and cultured for another 2 days before used for Atoh1 induction assay. On the first day of assay, NPCs were seeded into matrigel-coated 384 well plates (Black view-plate, PE) at 2500 cells/well. After over-night culture, the NPCs were treated with representative compounds of the present disclosure with 1:2 serial dilutions for 10 doses, from 50 μM to 200 nM, with DMSO as negative control. After 72 hours treatment without medium change, the cells were fixed with 4% formalin for staining Assay plates were stained with GFP antibody (Abcam, #13970, 1:1000) to amplify endogenous GFP signal and then read by Cellomics. […] Table 1 Atoh1 activation by treatment of Compounds of the present disclosure (Atoh1-GFP reporter assay in cerebellar NPCs)

[1] = tested on: mouse cochlea explants with hair cell damage; assay: Ex vivo hair cell induction assay using 6-day-postnatal mouse cochlea explants with hair cell damage; assay type: cell-based; conditions: 10 μM; neomycin-damaged P6 Atoh1-GFP mouse cochlea explants; 8 days treatment; Mean ± SD; DMSO control 0
Procedure: Ex Vivo Hair Cell Induction Assay Using 6-Day-Postnatal Mouse Cochlea Explants with Hair Cell Damage
P6, postnatal 6 days, Atoh1-GFP mice, the same mouse strain used for Atoh1 induction assay described before, were used in this assay. The otic capsule was exposed and the cochleae were micro-dissected. The basilar membrane was separated from the organ of Corti and in vitro cultured in serum free medium (culture medium: DMEM/F12+1% N2+2% B27+5 μg/ml ampicillin) at 37° C. under a standard gas atmosphere of humidified air/5% CO2. Inner ear hair cells were damaged by 1 mM Neomycin treatment for […] After the neomycin treatment, explants were cultured in blank culture medium for 7 days before the treatment of selected compounds.
For compound administration, the cochlea explants were treated with 3 to 10 μM compound of the present disclosure, with DMSO as the negative control for 8 days with once compound/medium change. After 8 days treatment, the tested compound was removed. The explants were cultured in blank medium for additional 4 days. The cochlea explant cultures then were fixed with 4% w/v formalin and processed for Myo7a immunofluorescence (Myo7a is a specific marker for sensory hair cell) using the rabbit anti-Myo7a antibody (Protus Biosci #25-6790, 1:250 diluted in PBS containing 3% BSA). Rhodamine labeled Goat-anti-rabbit IgG (Molecular Prob. #R6394, 1:1000 diluted in PBS containing 3% BSA) was used as the secondary antibody to visualize the Myo7a positive cells. The images were collected and analyzed using the EVOS image system (Thermo-Fisher Scientific). […] The hair cell identity of the ectopically formed cells was confirmed by staining the cells with multiple hair cell markers.
The efficacy of hair cells induction in this assay is represented by the responsive length percentage of Atoh1 and Myo7a double positive cells in the damaged whole explants after compound treatment. The responsive length percentage was calculated according to the equation of ((the explant length with Atoh1 and Myo7a double positive cells/the full length of cochlea explant)*100%). Note the value of DMSO control is 0% due to total damage of hair cells, and any responsive length percentage more than 20% is considered as significant hair cell induction.

| SMILES | maximal fold induction (Atoh1) | Atoh1-GFP/Myo7a cell numbers in 25%-50% length from Apex [1] | Response ratio (Response length/full length %) [1] |
| --- | --- | --- | --- |
| NC(=O)C1CN(CCCCCNC(=O)c2cc(-c3cccs3)on2)CC1O (single isomer, unassigned) [33 peak 1] | 34.8 | 19.4 ± 2.7 | 62.1 ± 11.8% |
| NC(=O)[C@@H]1CN(CCCCCNC(=O)c2cc(-c3cccs3)on2)CC[C@H]1O [35 trans] | 24.8 | 14.2 ± 1.8 | 63.9 ± 5.8% |
| NC(=O)CN1CCN(CCCCCNC(=O)c2cc(-c3cccs3)on2)CC1 [Example 18, N-(5-(4-(2-amino-2-oxoethyl)piperazin-1-yl)pentyl)-5-(thiophen-2-yl)isoxazole-3-carboxamide] | 20.4 | 16.1 ± 3.0 | 59.4 ± 5.3% |
| NC(=O)[C@H](O)CN1CCN(CCCCCNC(=O)c2cc(-c3cccs3)on2)CC1 [Example 37 R, (R)—N-(5-(4-(3-amino-2-hydroxy-3-oxopropyl)piperazin-1-yl)pentyl)-5-(thiophen-2-yl)isoxazole-3-carboxamide] |  | 13.6 ± 4.0 | 42.2 ± 7.7% |
| NC(=O)[C@@H](O)CN1CCN(CCCCCNC(=O)c2cc(-c3cccs3)on2)CC1 [Example 37 S, (S)—N-(5-(4-(3-amino-2-hydroxy-3-oxopropyl)piperazin-1-yl)pentyl)-5-(thiophen-2-yl)isoxazole-3-carboxamide] |  | 11.1 ± 3.0 | 50.1 ± 16.8% |
| NC(=O)C(O)CN1CCN(CCCCCNC(=O)c2cc(-c3cccs3)on2)CC1 (stereo not shown) [Example 37, N-(5-(4-(3-amino-2-hydroxy-3-oxopropyl)piperazin-1-yl)pentyl)-5-(thiophen-2-yl)isoxazole-3-carboxamide] | 27.6 | 16.3 ± 4.0 | 56.9 ± 8.8% |
